Measurements as given in US20230293475A1, “METHODS OF PROVIDING SO[…] TO SUBJECTS WITH IMPAIRED RENAL FUNCTION” (Axsome Malta Ltd., priority 2020, published 2023).
Read-outs that look alike come from different tables or passages of the source.

Assay: Phase 1 single-dose study, plasma PK of solriamfetol by level of renal function
Assay type: in vivo, human
Details: for AUCt, percent ratio (90% confidence interval) of geometric mean relative to Group 1 / AUC∞, percent ratio (90% confidence interval) of geometric mean relative to Group 1 / Cmax, percent ratio (90% confidence interval) of geometric mean relative to Group 1 / AUC(0-t) / AUC(0-inf) / Cmax / Vd/F / Tmax / half-life: single 75-mg dose; for AUC(0-t) / AUC(0-inf) / Cmax / Vd/F / Tmax / half-life: both sexes, human, plasma, oral, 75 mg; for Vd/F: read-out: Vd/F, mean ± SD (%CV); for Tmax: read-out: tmax, median (min, max); for half-life: read-out: t½, mean ± SD (%CV) (converted)
Method: In healthy subjects with normal renal function, solriamfetol HCl is renally excreted ~90% unchanged within 48 hours of administration. Thus, renal impairment, as well as hemodialysis in individuals with end-stage renal disease (ESRD), could affect the PK of solriamfetol HCl. To ascertain the precise impact of renal impairment and hemodialysis on pharmacokinetics and safety of solriamfetol RCl, a Phase 1, parallel-group, open-label, single-dose study was conducted at 2 U.S. sites. The protocol was approved by the IntegReview Institutional Review Board (Austin, Texas), and the study was conducted in compliance with the protocol, the Guideline for Good Clinical Practice E6; the US Code of Federal Regulations pertaining to conduct and reporting of clinical studies; the Clinical Trials Directive of the European Medicines Agency (Directive 2001/20/EC); and the Declaration of Helsinki. Written informed consent was obtained from each subject before enrollment in the study and before performance of any study-related procedure. See, also, Zomorodi K, Chen D, Lee L, Lasseter K, Marbury T. An Open-Label, Single-Dose, Phase 1 Study of the Pharmacokinetics and Safety of JZP-110 in Subjects With Normal or Impaired Renal Function and With End-Stage Renal Disease Requiring Hemodialysis [abstract]. Sleep. 2017;40 (suppl):A382-383.
Eligible participants were men and non-pregnant, non-lactating women between the ages of 18 and 80 years, with a body mass index (BMI) ≤ 35 kg/m^2. Women of childbearing potential were required to have used a medically accepted method of birth control for at least 2 months prior to the first dose of study drug, with continued use throughout the study period and for 30 days after study completion.
Eligible participants were assigned to 1 of 5 groups according to renal disease status as measured by the estimated glomerular filtration rate (eGFR) on the day prior to dosing, calculated using the Modification in Diet in Renal Disease equation. Group 1 consisted of healthy participants with normal renal function (eGFR ≥ 90 mL/min/1.73 m^2) and served as the control group. Groups 2, 3, and 4 had mild, moderate, and severe renal impairment based on eGFRs of 60-89, 30-59, and < 30 mL/min/1.73 m^2, respectively. Group 5 consisted of participants with ESRD who required ≥ 3 hemodialysis treatments per week for the preceding 3 months. […] Group 1 was enrolled last to facilitate matching the mean age, BMI, and sex distribution of Groups 2-5.
Groups 1-4 received one dose of solriamfetol HCl (89.3 mg; equivalent to 75-mg solriamfetol) on day 1; Group 5 received one dose equivalent to 75-mg dose on day 1 followed by 4-hour hemodialysis (designated Group 5.2), and one dose equivalent to 75-mg solriamfetol on day 8 without hemodialysis (designated Group 5.1). All doses were administered on an empty stomach following an overnight fast except for participants in Group 5, who received a standardized snack on day 7 and breakfast early on day 8 before starting an 8-hour fast. Participants remained fasting for 4 hours after administration, with water allowed except for 1 hour before and after dosing.
Serial blood samples of approximately 4 mL were collected within 30 minutes prior to dosing and at 0.5, 1, 1.5, 2, 2.5, 3, 4, 6, 8, 10, 12, 24, 36, and 48 hours post-dose in Groups 1-3, with continued sampling at 60 and 72 hours post-dose in Groups 4 and 5. All blood samples were collected into labeled K2EDTA tubes by direct venipuncture or indwelling catheter and kept on ice until the samples were centrifuged within 30 minutes of collection at approximately 2500 rpm (1315 × g) at 4° C. for 10 minutes. The plasma was transferred into polypropylene tubes for freezing and storage at -70° C. until analysis.
Bioanalytical analyses were performed by a central laboratory (KCAS, LLC, Shawnee, Kansas) using validated proprietary methods that included extraction/derivatization and liquid chromatography-tandem mass spectrometry (LC-MS/MS). […]

[1] = Group 3 moderate renal impairment
[2] = Group 4 severe renal impairment
[3] = Group 5.1 ESRD without hemodialysis
[4] = Group 5.2 ESRD with hemodialysis
[5] = Group 5.1 ESRD without hemodialysis, n=3
[6] = Group 5.2 ESRD with hemodialysis, n=6

NC(=O)OC[C@H](N)Cc1ccccc1 [solriamfetol, [R]-2-amino-3-phenylpropylcarbamate]
Cmax, lower relative to normal renal function (ESRD requiring hemodialysis): ≤ 19% | overall exposure, fold increase relative to normal renal function (ESRD requiring hemodialysis): ≥ 4 fold | t½, fold longer relative to normal renal function (ESRD requiring hemodialysis): ≥ 13 fold | Cmax, higher versus Group 1 (Group 2 mild renal impairment): approximately 6% | total exposure (AUC∞), higher relative to Group 1 (Group 2 mild renal impairment): 53% | AUCt, percent ratio (90% confidence interval) of geometric mean relative to Group 1 (Group 2 mild renal impairment): 158.3 (97.5, 256.9) % | AUC∞, percent ratio (90% confidence interval) of geometric mean relative to Group 1 (Group 2 mild renal impairment): 152.9 (92.9, 251.7) % | Cmax, percent ratio (90% confidence interval) of geometric mean relative to Group 1 (Group 2 mild renal impairment): 105.9 (80.6, 139.0) % | Cmax, higher versus Group 1 [1]: ~4% | total exposure (AUC∞), higher relative to Group 1 [1]: 129% | AUCt, percent ratio (90% confidence interval) of geometric mean relative to Group 1 [1]: 219.2 (133.7, 359.6) % | AUC∞, percent ratio (90% confidence interval) of geometric mean relative to Group 1 [1]: 229.2 (135.6, 387.4) % | Cmax, percent ratio (90% confidence interval) of geometric mean relative to Group 1 [1]: 104.3 (78.4, 138.9) % | Cmax, higher versus Group 1 [2]: ~11% | total exposure (AUC∞), higher relative to Group 1 [2]: 339% | AUCt, percent ratio (90% confidence interval) of geometric mean relative to Group 1 [2]: 380.4 (208.4, 694.4) % | AUC∞, percent ratio (90% confidence interval) of geometric mean relative to Group 1 [2]: 438.6 (217.3, 885.3) % | Cmax, percent ratio (90% confidence interval) of geometric mean relative to Group 1 [2]: 110.5 (81.1, 150.6) % | overall exposure (AUCt), fold higher relative to Group 1 (Group 5.1 ESRD without dialysis on day 8): approximately 5 fold | Cmax, lower versus Group 1 [3]: approximately 3% | exposure, higher versus Group 1 [3]: approximately 518% | AUCt, percent ratio (90% confidence interval) of geometric mean relative to Group 1 [3]: 617.8 (385.3, 990.8) % | AUC∞, percent ratio (90% confidence interval) of geometric mean relative to Group 1 [3]: 1290.6 (542.78, 3068.5) % | Cmax, percent ratio (90% confidence interval) of geometric mean relative to Group 1 [3]: 97.2 (76.1, 124.1) % | overall exposure (AUCt), fold higher relative to Group 1 (Group 5.2 ESRD with dialysis on day 1): about 4 fold | Cmax, lower versus Group 1 [4]: ~19% | exposure, higher versus Group 1 [4]: ~357% | AUCt, percent ratio (90% confidence interval) of geometric mean relative to Group 1 [4]: 457.2 (296.6, 704.9) % | AUC∞, percent ratio (90% confidence interval) of geometric mean relative to Group 1 [4]: 1496.5 (748.7, 2991.2) % | Cmax, percent ratio (90% confidence interval) of geometric mean relative to Group 1 [4]: 80.9 (63.4,103.1) % | AUC(0-t) (Group 1 normal renal function, over 48 h, read-out: AUCt, mean ± SD (%CV)): 4850 ± 3450 ng·h/mL | AUC(0-t) (Group 1 normal renal function, over 48 hours, read-out: AUCt, geometric LS mean (converted)): 4090 ng·h/mL | AUC(0-inf) (Group 1 normal renal function, read-out: AUC∞, geometric LS mean): 4360 ng·h/mL | AUC(0-inf) (Group 1 normal renal function, read-out: AUC∞, mean ± SD (%CV)): 5270 ± 4100 ng·h/mL | Cmax (Group 1 normal renal function, read-out: Cmax, geometric LS mean): 482 ng/mL | Cmax (Group 1 normal renal function, read-out: Cmax, mean ± SD (%CV)): 499 ng/mL | Vd/F (Group 1 normal renal function): 164 L | Tmax (Group 1 normal renal function): 1.3 h | half-life (Group 1 normal renal function): 7.6 ± 5.1 h | AUC(0-t) (Group 2 mild renal impairment, over 48 h, read-out: AUCt, mean ± SD (%CV)): 6610 ng·h/mL | AUC(0-t) (Group 2 mild renal impairment, over 48 hours, read-out: AUCt, geometric LS mean (converted)): 6470 ng·h/mL | AUC(0-inf) (Group 2 mild renal impairment, read-out: AUC∞, geometric LS mean): 6670 ng·h/mL | AUC(0-inf) (Group 2 mild renal impairment, read-out: AUC∞, mean ± SD (%CV)): 6840 ng·h/mL | Cmax (Group 2 mild renal impairment, read-out: Cmax, geometric LS mean): 510 ng/mL | Cmax (Group 2 mild renal impairment, read-out: Cmax, mean ± SD (%CV)): 522 ng/mL | Vd/F (Group 2 mild renal impairment): 147 L | Tmax (Group 2 mild renal impairment): 1.5 h | half-life (Group 2 mild renal impairment): 9.1 ± 1.6 h | AUC(0-t) (Group 3 moderate renal impairment, over 48 h, read-out: AUCt, mean ± SD (%CV)): 9230 ng·h/mL | AUC(0-t) (Group 3 moderate renal impairment, over 48 hours, read-out: AUCt, geometric LS mean (converted)): 8960 ng·h/mL | AUC(0-inf) (Group 3 moderate renal impairment, read-out: AUC∞, geometric LS mean): 10000 ng·h/mL | AUC(0-inf) (Group 3 moderate renal impairment, read-out: AUC∞, mean ± SD (%CV)): 10500 ng·h/mL | Cmax (Group 3 moderate renal impairment, read-out: Cmax, geometric LS mean): 503 ng/mL | Cmax (Group 3 moderate renal impairment, read-out: Cmax, mean ± SD (%CV)): 517 ng/mL | Vd/F [1]: 152 L | Tmax [1]: 1.5 h | half-life [1]: 14.3 ± 4.5 h | AUC(0-t) (Group 4 severe renal impairment, over 72 hours, read-out: AUCt, geometric LS mean (converted)): 15500 ng·h/mL | AUC(0-inf) (Group 4 severe renal impairment, read-out: AUC∞, geometric LS mean): 19100 ng·h/mL | AUC(0-inf) (Group 4 severe renal impairment, read-out: AUC∞, mean ± SD (%CV)): 23600 ng·h/mL | Cmax (Group 4 severe renal impairment, read-out: Cmax, geometric LS mean): 533 ng/mL | Cmax (Group 4 severe renal impairment, read-out: Cmax, mean ± SD (%CV)): 553 ng/mL | Vd/F [2]: 157 L | Tmax [2]: 2 h | half-life [2]: 29.6 ± 14.4 h | AUC(0-inf) (Group 5.1 ESRD without hemodialysis, n=3, read-out: AUC∞, geometric LS mean): 56300 ng·h/mL | Vd/F [5]: 154 L | half-life [5]: 100 h | AUC(0-t) (Group 5.1 ESRD without hemodialysis, over 72 hours, read-out: AUCt, geometric LS mean (converted)): 25300 ng·h/mL | Cmax (Group 5.1 ESRD without hemodialysis, read-out: Cmax, geometric LS mean): 469 ng/mL | Cmax (Group 5.1 ESRD without hemodialysis, read-out: Cmax, mean ± SD (%CV)): 474 ng/mL | Tmax [3]: 3.3 h | AUC(0-inf) (Group 5.2 ESRD with hemodialysis, n=6, read-out: AUC∞, geometric LS mean): 65300 ng·h/mL | Vd/F [6]: 231 L | half-life [6]: 165 h | AUC(0-t) (Group 5.2 ESRD with hemodialysis, over 72 hours, read-out: AUCt, geometric LS mean (converted)): 18700 ng·h/mL | Cmax (Group 5.2 ESRD with hemodialysis, read-out: Cmax, geometric LS mean): 390 ng/mL | Cmax (Group 5.2 ESRD with hemodialysis, read-out: Cmax, mean ± SD (%CV)): 396 ng/mL | Tmax [4]: 1.5 h | AUC0-inf, fold compared with normal renal function (mild renal impairment): ~1.53 fold | t½, fold increase compared with normal renal function (mild renal impairment): approximately 1.2 fold | AUC0-inf, fold compared with normal renal function (moderate renal impairment): ~2.29 fold | t½, fold increase compared with normal renal function (moderate renal impairment): ~1.9 fold | AUC0-inf, fold compared with normal renal function (severe renal impairment): ~4.39 fold | t½, fold increase compared with normal renal function (severe renal impairment): ~3.9 fold
